# From article PMC10763615, “Identification and engineering of potent cyclic peptides with selective or promiscuous binding through biochemical profiling and bioinformatic data analysis” (RSC Chemical Biology, 2023)
# Read-outs that look alike come from different tables or passages of the source.
# How the values were obtained:
# [1] = target: T1, FGFR3c/BKL (Fc-fused human FGF-R3alpha(IIIc) with beta-klotho) (Homo sapiens, UniProt P22607); test: AlphaScreen FGF21 competitive binding assay
# T1 sequence (P22607 23-375 limits assumed): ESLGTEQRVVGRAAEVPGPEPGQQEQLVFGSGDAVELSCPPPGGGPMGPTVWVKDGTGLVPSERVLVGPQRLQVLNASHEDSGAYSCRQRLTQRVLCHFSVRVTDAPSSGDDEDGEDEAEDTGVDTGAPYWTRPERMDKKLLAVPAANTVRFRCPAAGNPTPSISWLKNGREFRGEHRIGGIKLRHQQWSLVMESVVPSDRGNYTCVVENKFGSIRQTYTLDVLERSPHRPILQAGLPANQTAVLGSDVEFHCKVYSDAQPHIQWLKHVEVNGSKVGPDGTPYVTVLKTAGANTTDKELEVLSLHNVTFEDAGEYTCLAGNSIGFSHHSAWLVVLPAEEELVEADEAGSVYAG
# Description: Alphascreen binding assay
# (§3) The competitive binding assay was carried out according to the methods detailed in Hansen. et al using
# (§4) AlphaScreen.3 All reagents and samples were prepared in assay buffer: 40mM Hepes, 140mM NaCl, 1mM
# (§5) CaCl2, 0,05% Tween20, pH=7.5, 0.1% BSA. In brief, recombinant human beta-klotho (R&D Systems) was
# (§6) preincubated for 60 min with the ectodomain, either Fc-fused human FGF-R1alpha(IIIc), FGF-R3alpha(IIIc)
# (§7) or FGF-R4 (R&D Systems), and the mixture was added to the test peptides in OptiPlate™ (PerkinElmer).
# (§8) Biotinylated FGF21 and heparin were further added to each well. AlphaScreen bead mix (1:1 mix of Protein
# (§9) A acceptor beads/ streptavidin-coated donor beads, PerkinElmer) were added to each well incubated
# (§10) overnight at RT in the dark, and measured on a plate reader (Envision). Assays were carried out in triplicates
# (§11) with concentrations ranging from 3, 10, 30, 100, 300 ,1000 and 3000 nM of peptide. No peptide control
# (§12) (media only) was used as a negative control, and unlabeled FGF21 and FGF1 as positive control.
# (§13) competing with biotinylated natural FGF21 ligand.
# FGF-R4 ECD [2] = target: T2, FGF-R4 ECD (Homo sapiens, UniProt P22455); test: multi-concentration BLI of purified peptides; assay type: binding; settings: purified NNK library peptides
# T2 construct: DNA constructs for the extracellular domain (ECD) of human FGF-; HPC4 (C); made in house; host or cells: HEK 293-6E
# T2 sequence (P22455 22-369 limits assumed): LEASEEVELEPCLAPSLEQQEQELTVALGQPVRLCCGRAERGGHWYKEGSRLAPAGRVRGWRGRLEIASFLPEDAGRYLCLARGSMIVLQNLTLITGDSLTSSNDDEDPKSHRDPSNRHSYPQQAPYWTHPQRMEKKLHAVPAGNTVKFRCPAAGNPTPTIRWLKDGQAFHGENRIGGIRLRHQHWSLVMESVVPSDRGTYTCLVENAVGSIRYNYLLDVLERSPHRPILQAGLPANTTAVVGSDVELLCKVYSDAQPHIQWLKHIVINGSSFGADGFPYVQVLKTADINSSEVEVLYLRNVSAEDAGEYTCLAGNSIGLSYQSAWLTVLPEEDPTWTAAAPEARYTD
# Method in brief: (§1)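 Biolayer interferometry with biotinylated FGF-R ECD on streptavidin biosensors in PBS pH 7.4, 0.05% Tween-20, 0.01% BSA. Multi-concentration: purified peptide dilution series fitted to a multi-point KD model.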
# FGF-R1C ECD [3] = target: T3, FGF-R1C ECD (Homo sapiens, UniProt P11362); test: biochemical
# T3 sequence (P11362 22-376 limits assumed): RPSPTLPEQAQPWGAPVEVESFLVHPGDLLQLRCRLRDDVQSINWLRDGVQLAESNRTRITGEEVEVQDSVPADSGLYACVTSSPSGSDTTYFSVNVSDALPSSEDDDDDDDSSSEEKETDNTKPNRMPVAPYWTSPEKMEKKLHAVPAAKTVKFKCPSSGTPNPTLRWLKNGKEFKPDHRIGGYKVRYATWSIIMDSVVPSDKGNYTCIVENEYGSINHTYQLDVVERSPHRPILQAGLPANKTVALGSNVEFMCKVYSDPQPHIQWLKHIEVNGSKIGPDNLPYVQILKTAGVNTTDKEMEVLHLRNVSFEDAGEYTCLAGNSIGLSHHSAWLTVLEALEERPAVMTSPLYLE
# Method in brief: as §1
# FGF-R3C ECD [4] = target: T4, FGF-R3C ECD (Homo sapiens, UniProt P22607); test: biochemical
# T4 sequence (P22607 23-375 limits assumed): T1 sequence (P22607 23-375 limits assumed)
# Method in brief: as §1
# FGF-R1C ECD [5] = target: T3, FGF-R1C ECD; test: biochemical; assay type: binding; design: DNA constructs for the extracellular domain (ECD) of human FGF-; HPC4 (C); made in house; host or cells: HEK 293-6E
# Method in brief: (§2)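 BLI, streptavidin sensors loaded with biotinylated receptor ECD. Single-point: ~1 μM crude peptide, PBS pH7.4/0.05% Tween-20/0.01% BSA; association then dissociation in buffer. KD corrected for UPLC-CAD-determined concentration.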
# FGF-R3C ECD [6] = target: T4, FGF-R3C ECD; test: biochemical; assay type: binding; design: DNA constructs for the extracellular domain (ECD) of human FGF-; HPC4 (C); made in house; host or cells: HEK 293-6E
# Method in brief: as §2
# [7] = target: T5, FGFR4/KLB (Fc-fused human FGF-R4 with beta-klotho) (Homo sapiens, UniProt P22455); test: AlphaScreen FGF21 competitive binding assay
# T5 sequence (P22455 22-369 limits assumed): T2 sequence (P22455 22-369 limits assumed)
# Description: Alphascreen binding assay
# as §3, §4, §5, §6, §7, §8, §9, §10, §11, §12, §13
# [8] = target: T6, FGFR1c/KLB (Fc-fused human FGF-R1alpha(IIIc) with beta-klotho) (Homo sapiens, UniProt P11362); test: AlphaScreen FGF21 competitive binding assay
# T6 sequence (P11362 22-376 limits assumed): T3 sequence (P11362 22-376 limits assumed)
# FGF-R4 ECD [9] = target: T2, FGF-R4 ECD; test: single concentration BLI of crude peptides; assay type: binding; settings: crude NNK peptides, single concentration BLI (Table S3); read-out: KD (4)
# Method in brief: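 Biotinylated FGF-R ECD on streptavidin biosensors was dipped into ~1 μM crude peptide in PBS pH7.4 with 0.05% Tween-20 and 0.01% BSA for association, then into buffer for dissociation, and followed by BLI. Fitted KD values were adjusted for peptide concentration measured by UPLC-CAD.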
SMILES,IC50 [1],Kd (FGF-R4 ECD [2]),Kd (FGF-R1C ECD [3]),Kd (FGF-R3C ECD [4]),"R3C KD (nM) (FGF-R3C ECD [4]; purified NNK library peptides, multi-concentration BLI)",Kd (FGF-R1C ECD [5]),Kd (FGF-R3C ECD [6]),IC50 [7],IC50 [8],Kd (FGF-R4 ECD [9])
CC[C@H](C)[C@@H]1NC(=O)[C@@H](NC(=O)[C@@H](N)CCSC)CSSC[C@@H](C(=O)NCC(=O)N[C@@H](CO)C(=O)NCC(=O)N[C@@H](CO)C(=O)N[C@@H](CC(=O)O)C(=O)N[C@@H](Cc2ccc(O)cc2)C(=O)N[C@@H](CCCCN)C(=O)N[C@@H](CC(=O)O)C(=O)N[C@@H](CC(=O)O)C(=O)N[C@@H](CC(=O)O)C(=O)N[C@@H](CC(=O)O)C(=O)N[C@@H](CCCCN)C(N)=O)NC(=O)[C@@H]2CCCN2C(=O)[C@H]([C@@H](C)CC)NC(=O)[C@H](Cc2ccccc2)NC(=O)[C@@H]2CCCN2C(=O)[C@H](CCSC)NC(=O)[C@H](Cc2c[nH]cn2)NC(=O)[C@H]([C@@H](C)CC)NC(=O)[C@H](CC(=O)O)NC(=O)[C@H](Cc2ccccc2)NC1=O [3C.2],> 1000 nM,> 1000 nM,> 1000 nM,> 1000 nM,did not show any binding,> 10000 nM,> 10000 nM,> 1000 nM,> 1000 nM,> 10000 nM
CSCC[C@H](N)C(=O)N[C@H]1CSSC[C@@H](C(=O)NCC(=O)N[C@@H](CO)C(=O)NCC(=O)N[C@@H](CO)C(=O)N[C@@H](CC(=O)O)C(=O)N[C@@H](Cc2ccc(O)cc2)C(=O)N[C@@H](CCCCN)C(=O)N[C@@H](CC(=O)O)C(=O)N[C@@H](CC(=O)O)C(=O)N[C@@H](CC(=O)O)C(=O)N[C@@H](CC(=O)O)C(=O)N[C@@H](CCCCN)C(N)=O)NC(=O)[C@H](C(C)C)NC(=O)[C@H](Cc2c[nH]c3ccccc23)NC(=O)[C@H](Cc2ccc(O)cc2)NC(=O)[C@H](CCCNC(=N)N)NC(=O)[C@H](CC(=O)O)NC(=O)[C@H](Cc2ccccc2)NC(=O)[C@H](Cc2c[nH]cn2)NC(=O)[C@H](CCCNC(=N)N)NC(=O)[C@H]([C@@H](C)O)NC(=O)[C@H](Cc2c[nH]c3ccccc23)NC(=O)[C@H](CC(C)C)NC(=O)[C@H](CC(C)C)NC1=O [1C.2],> 1000 nM,> 1000 nM,64 nM,> 1000 nM,–,95 nM,> 10000 nM,> 1000 nM,108 nM,> 10000 nM
CC[C@H](C)[C@@H]1NC(=O)[C@@H]2CCCN2C(=O)[C@H](Cc2ccccc2)NC(=O)[C@@H]2CCCN2C(=O)[C@H](Cc2c[nH]c3ccccc23)NC(=O)[C@@H]2CCCN2C(=O)[C@H](Cc2ccccc2)NC(=O)[C@H](CCCCN)NC(=O)[C@H]([C@@H](C)O)NC(=O)[C@@H](NC(=O)[C@@H](N)CCSC)CSSC[C@@H](C(=O)NCC(=O)N[C@@H](CO)C(=O)NCC(=O)N[C@@H](CO)C(=O)N[C@@H](CC(=O)O)C(=O)N[C@@H](Cc2ccc(O)cc2)C(=O)N[C@@H](CCCCN)C(=O)N[C@@H](CC(=O)O)C(=O)N[C@@H](CC(=O)O)C(=O)N[C@@H](CC(=O)O)C(=O)N[C@@H](CC(=O)O)C(=O)N[C@@H](CCCCN)C(N)=O)NC(=O)[C@H](C)NC(=O)[C@H](Cc2c[nH]c3ccccc23)NC(=O)[C@H](Cc2ccccc2)NC1=O [1C.8],> 1000 nM,464 nM,323 nM,> 1000 nM,–,155 nM,47 nM,431 nM,112 nM,70 nM
CC[C@H](C)[C@@H]1NC(=O)[C@H](Cc2c[nH]c3ccccc23)NC(=O)[C@@H]2CCCN2C(=O)[C@H](CCC(=O)O)NC(=O)[C@@H](NC(=O)[C@H](CCSC)NC(C)=O)CSSC[C@@H](C(=O)NCC(=O)N[C@@H](CO)C(=O)NCC(=O)N[C@@H](CO)C(=O)N[C@@H](CC(=O)O)C(=O)N[C@@H](Cc2ccc(O)cc2)C(=O)N[C@@H](CCCCN)C(=O)N[C@@H](CC(=O)O)C(=O)N[C@@H](CC(=O)O)C(=O)N[C@@H](CC(=O)O)C(=O)N[C@@H](CC(=O)O)C(=O)N[C@@H](CCCCN)C(N)=O)NC(=O)[C@H](CCCCN)NC(=O)[C@H](CCCCN)NC(=O)[C@H](CC(C)C)NC(=O)[C@H](C(C)C)NC(=O)[C@H](CCCCN)NC(=O)[C@H](Cc2ccc(O)cc2)NC(=O)[C@H]([C@@H](C)CC)NC(=O)[C@H]([C@@H](C)O)NC1=O [4.8],> 1000 nM,478 nM,> 1000 nM,> 1000 nM,–,> 10000 nM,1250 nM,945 nM,> 1000 nM,287 nM
CSCC[C@H](N)C(=O)N[C@H]1CSSC[C@@H](C(=O)NCC(=O)N[C@@H](CO)C(=O)NCC(=O)N[C@@H](CO)C(=O)N[C@@H](CC(=O)O)C(=O)N[C@@H](Cc2ccc(O)cc2)C(=O)N[C@@H](CCCCN)C(=O)N[C@@H](CC(=O)O)C(=O)N[C@@H](CC(=O)O)C(=O)N[C@@H](CC(=O)O)C(=O)N[C@@H](CC(=O)O)C(=O)N[C@@H](CCCCN)C(N)=O)NC(=O)[C@H](Cc2ccccc2)NC(=O)[C@@H]2CCCN2C(=O)[C@H]([C@@H](C)O)NC(=O)[C@H](CC(C)C)NC(=O)[C@H](Cc2c[nH]cn2)NC(=O)[C@H](Cc2c[nH]cn2)NC(=O)[C@H](Cc2ccccc2)NC(=O)[C@H](CC(C)C)NC(=O)[C@H](CCCNC(=N)N)NC(=O)[C@H](Cc2c[nH]c3ccccc23)NC(=O)[C@H](CCCNC(=N)N)NC(=O)[C@H](Cc2ccccc2)NC1=O [1C.10],> 1000 nM,73 nM,101 nM,> 1000 nM,–,50 nM,> 10000 nM,283 nM,84 nM,79 nM
CSCC[C@H](NC(C)=O)C(=O)N[C@H]1CSSC[C@@H](C(=O)NCC(=O)N[C@@H](CO)C(=O)NCC(=O)N[C@@H](CO)C(=O)N[C@@H](CC(=O)O)C(=O)N[C@@H](Cc2ccc(O)cc2)C(=O)N[C@@H](CCCCN)C(=O)N[C@@H](CC(=O)O)C(=O)N[C@@H](CC(=O)O)C(=O)N[C@@H](CC(=O)O)C(=O)N[C@@H](CC(=O)O)C(=O)N[C@@H](CCCCN)C(N)=O)NC(=O)[C@H](CC(C)C)NC(=O)[C@H](Cc2c[nH]c3ccccc23)NC(=O)[C@H](C)NC(=O)[C@H](Cc2ccccc2)NC(=O)[C@H](Cc2ccccc2)NC(=O)[C@H](Cc2c[nH]c3ccccc23)NC(=O)[C@@H]2CCCN2C(=O)[C@H](Cc2c[nH]cn2)NC(=O)[C@H](CCCCN)NC(=O)[C@H](Cc2ccccc2)NC1=O [4.5],> 1000 nM,233 nM,> 1000 nM,> 1000 nM,–,> 10000 nM,> 10000 nM,284 nM,> 1000 nM,35 nM
